The text below walks through data of patent US20140187548A1, “6 SUBSTITUTED IMIDAZOPYRAZINES FOR USE AS MPS-1 AND TKK INHIBITORS IN THE TREATMENT OF HYPERPROLIFERATIVE DISORDERS” (BAYER INTELLECTUAL PROPERTY GMBH, priority 2010, published 2014).

The target in this experiment is T1, human kinase Mps-1 (Homo sapiens, UniProt P33981).
T1 construct: N-terminally GST-tagged human full length recombinant Mps-1 kinase; GST (N); purchased Invitrogen, Karslruhe, Germany PV4071
T1 sequence (P33981 1-857): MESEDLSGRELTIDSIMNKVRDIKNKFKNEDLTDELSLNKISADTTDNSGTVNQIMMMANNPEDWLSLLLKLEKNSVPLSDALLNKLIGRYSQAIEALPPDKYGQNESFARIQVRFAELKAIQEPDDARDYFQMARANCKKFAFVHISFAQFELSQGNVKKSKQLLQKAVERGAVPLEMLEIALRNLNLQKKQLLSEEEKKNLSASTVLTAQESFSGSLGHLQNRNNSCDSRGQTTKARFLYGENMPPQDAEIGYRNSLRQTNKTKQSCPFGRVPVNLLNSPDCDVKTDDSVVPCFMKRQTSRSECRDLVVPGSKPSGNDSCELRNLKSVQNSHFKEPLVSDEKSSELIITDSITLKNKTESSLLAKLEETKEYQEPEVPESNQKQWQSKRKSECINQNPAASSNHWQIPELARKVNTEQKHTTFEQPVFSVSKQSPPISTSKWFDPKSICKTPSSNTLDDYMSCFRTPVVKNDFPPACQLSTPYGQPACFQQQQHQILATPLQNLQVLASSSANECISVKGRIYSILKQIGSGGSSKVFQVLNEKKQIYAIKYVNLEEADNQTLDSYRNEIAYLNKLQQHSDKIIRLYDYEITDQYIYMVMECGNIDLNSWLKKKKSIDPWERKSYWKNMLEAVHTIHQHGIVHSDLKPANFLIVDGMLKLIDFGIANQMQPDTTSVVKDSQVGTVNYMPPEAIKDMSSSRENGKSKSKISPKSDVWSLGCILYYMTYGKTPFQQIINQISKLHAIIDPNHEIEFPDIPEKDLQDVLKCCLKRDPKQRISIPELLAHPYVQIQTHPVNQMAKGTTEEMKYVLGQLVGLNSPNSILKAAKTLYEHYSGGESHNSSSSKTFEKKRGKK
As to the kind of experiment: Mps-1 kinase assay (TR-FRET). The experiment is classed as biochemical. As to conditions: N-terminally GST-tagged human full length recombinant Mps-1; 10 μM ATP; 1 μM peptide substrate; 15 min pre-incubation; 60 min at 22° C. In short, it runs like this:
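N-terminally GST-tagged full-length recombinant human Mps-1, about 1 nM final, phosphorylates a biotinylated peptide. Product detected by TR-FRET from Eu-anti-phospho-Ser/Thr antibody to streptavidin-XLent after 1 h at 22° C.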
On the technique in general: TR-FRET usually uses a lanthanide donor and a delayed reading to cut background.
As usually defined, the IC50 is the concentration needed to halve the response being measured. For `Cn1ccc(CNc2nc(-c3ccccc3)cn3c(-c4ccc(C(=O)NC5CC5)cc4)cnc23)n1` [Example 2-53, N-cyclopropyl-4-(8-{[(1-methyl-1H-pyrazol-3-yl)methyl]amino}-6-phenylimidazo [1,2-a]pyrazin-3-yl)benzamide], the IC50 worked out at 5.6 nM. With `Cn1nccc1CNc1nc(-c2ccccc2)cn2c(-c3ccc(C(=O)NC4CC4)cc3)cnc12` [Example 2-54, N-cyclopropyl-4-(8-{[(1-methyl-1H-pyrazol-5-yl)methyl]amino}-6-phenylimidazo[1,2-a]pyrazin-3-yl)benzamide], the 50% inhibitory concentration (IC50) was determined as 1.5 nM. Take `O=C(NC1CC1)c1ccc(-c2cnc3c(NCc4cc[nH]n4)nc(-c4ccccc4)cn23)cc1` [Example 2-55, N-cyclopropyl-4-{6-phenyl-8-[(1H-pyrazol-3-ylmethyl)amino]imidazo[1,2-a]pyrazin-3-yl} benzamide]: the half-maximal inhibitory concentration (IC50) worked out at 2.7 nM. The same measure for `Cn1cc(CNc2nc(-c3ccccc3)cn3c(-c4ccc(C(=O)NC5CC5)cc4)cnc23)cn1` [Example 2-56, N-cyclopropyl-4-(8-{[(1-methyl-1H-pyrazol-4-yl)methyl]amino}-6-phenylimidazo[1,2-a]pyrazin-3-yl)benzamide]: 1.3 nM. Consider `CCOC(C)CNc1nc(-c2ccccc2)cn2c(-c3ccc(C(=O)NC4CC4)cc3)cnc12` (stereo not drawn) [Example 2-57, N-cyclopropyl-4-{8-[(2-ethoxypropyl)amino]-6-phenylimidazo[1,2-a]pyrazin-3-yl}benzamide], for which the IC50 came to 2.3 nM.

Take `CCC(CNc1nc(-c2ccccc2)cn2c(-c3ccc(C(=O)NC4CC4)cc3)cnc12)OC` (stereo not drawn) [Example 2-58, N-cyclopropyl-4-{8-[(2-methoxybutyl)amino]-6-phenylimidazo[1,2-a]pyrazin-3-yl}benzamide]: the IC50 worked out at 2.9 nM. The value for `O=C(NC1CC1)c1ccc(-c2cnc3c(NCc4sccc4Cl)nc(-c4ccccc4)cn23)cc1` [Example 2-59, 4-(8-{[(3-chlorothiophen-2-yl)methyl]amino}-6-phenylimidazo [1,2-a]pyrazin-3-yl)-N-cyclopropylbenzamide] was 6.4 nM; that for `O=C(NC1CC1)c1ccc(-c2cnc3c(NCc4ccc(Cl)s4)nc(-c4ccccc4)cn23)cc1` [Example 2-60, 4-(8-{[(5-chlorothiophen-2-yl)methyl]amino}-6-phenylimidazo [1,2-a]pyrazin-3-yl)-N-cyclopropylbenzamide] was 4.9 nM. For `N#Cc1cccc(CNc2nc(-c3ccccc3)cn3c(-c4ccc(C(=O)NC5CC5)cc4)cnc23)c1` [Example 2-61, 4-{8-[(3-cyanobenzyl)amino]-6-phenylimidazo[1,2-a]pyrazin-3-yl}-N-cyclopropylbenzamide], the IC50 was 12.1 nM.

`O=C(NC1CC1)c1ccc(-c2cnc3c(NCCCF)nc(-c4ccccc4)cn23)cc1` [Example 2-62, N-cyclopropyl-4-{8-[(3-fluoropropyl)amino]-6-phenylimidazo[1,2-a]pyrazin-3-yl}benzamide]: the 50% inhibitory concentration (IC50) stood at 1.1 nM.

As for `O=C(NC1CC1)c1ccc(-c2cnc3c(NCCc4nccs4)nc(-c4ccccc4)cn23)cc1` [Example 2-63, N-cyclopropyl-4-(6-phenyl-8-{[2-(1,3-thiazol-2-yl)ethyl]amino}imidazo[1,2-a]pyrazin-3-yl)benzamide], the half-maximal inhibitory concentration (IC50) is 5.6 nM.

In the case of `NS(=O)(=O)CCNc1nc(-c2ccccc2)cn2c(-c3ccc(C(=O)NC4CC4)cc3)cnc12` [Example 2-64, N-cyclopropyl-4-{6-phenyl-8-[(2-sulfamoylethyl)amino]imidazo[1,2-a]pyrazin-3-yl} benzamide], the IC50 was found to be 1 nM. For `O=C(NC1CC1)c1ccc(-c2cnc3c(NCC4CCCCO4)nc(-c4ccccc4)cn23)cc1` (stereo not drawn) [Example 2-65, N-cyclopropyl-4-{6-phenyl-8-[(tetrahydro-2H-pyran-2-ylmethyl)amino]imidazo[1,2-a]pyrazin-3-yl}benzamide], the concentration for half-maximal inhibition (IC50) was 1.3 nM.

With `O=C(NC1CC1)c1ccc(-c2cnc3c(NCC4CCCCC4)nc(-c4ccccc4)cn23)cc1` [Example 2-66, 4-{8-[(Cyclohexylmethyl)amino]-6-phenylimidazo[1,2-a]pyrazin-3-yl}-N-cyclopropylbenzamide], the IC50 worked out at 6.2 nM. `NCCCCNc1nc(-c2ccccc2)cn2c(-c3ccc(C(=O)NC4CC4)cc3)cnc12` [Example 2-67]: the IC50 amounted to 7.2 nM.

Take `NCCCNc1nc(-c2ccccc2)cn2c(-c3ccc(C(=O)NC4CC4)cc3)cnc12` [Example 2-68]: the IC50 was 17.4 nM. As for `NCCNc1nc(-c2ccccc2)cn2c(-c3ccc(C(=O)NC4CC4)cc3)cnc12` [Example 2-69, 4-{8-[(2-Aminoethyl)amino]-6-phenylimidazo[1,2-a]pyrazin-3-yl}-N-cyclopropylbenzamide], the 50% inhibitory concentration (IC50) worked out at 54.8 nM. As for `O=C(NC1CC1)c1ccc(-c2cnc3c(NCCCn4ccnc4)nc(-c4ccccc4)cn23)cc1` [Example 2-71, N-cyclopropyl-4-(8-{[3-(1H-imidazol-1-yl)propyl]amino}-6-phenylimidazo[1,2-a]pyrazin-3-yl)benzamide], the concentration for half-maximal inhibition (IC50) came out at 4.1 nM. On to `O=C(NC1CC1)c1ccc(-c2cnc3c(NCC4CCCC4)nc(-c4ccccc4)cn23)cc1` [Example 2-72, 4-{8-[(Cyclopentylmethyl)amino]-6-phenylimidazo[1,2-a]pyrazin-3-yl}-N-cyclopropylbenzamide], for which the 50% inhibitory concentration (IC50) turned out to be 2.5 nM. As to `O=C(NC1CC1)c1ccc(-c2cnc3c(NCC4CCC4)nc(-c4ccccc4)cn23)cc1` [Example 2-73, 4-{8-[(Cyclobutylmethyl)amino]-6-phenylimidazo[1,2-a]pyrazin-3-yl}-N-cyclopropylbenzamide], the concentration for half-maximal inhibition (IC50) amounted to 2.3 nM. Regarding `O=C(NC1CC1)c1ccc(-c2cnc3c(NCc4ccsc4)nc(-c4ccccc4)cn23)cc1` [Example 2-74, N-cyclopropyl-4-{6-phenyl-8-[(3-thienylmethyl)amino]imidazo[1,2-a]pyrazin-3-yl}benzamide], the IC50 was 3.7 nM. As to `O=C(NC1CC1)c1ccc(-c2cnc3c(NCc4ccco4)nc(-c4ccccc4)cn23)cc1` [Example 2-75, N-cyclopropyl-4-{8-[(2-furylmethyl)amino]-6-phenylimidazo[1,2-a]pyrazin-3-yl}benzamide], the half-maximal inhibitory concentration (IC50) is 3.2 nM. The value for `O=C(NC1CC1)c1ccc(-c2cnc3c(NCc4ccoc4)nc(-c4ccccc4)cn23)cc1` [Example 2-76, N-cyclopropyl-4-{8-[(3-furylmethyl)amino]-6-phenylimidazo[1,2-a]pyrazin-3-yl}benzamide] was 2.8 nM; that for `O=C(NC1CC1)c1ccc(-c2cnc3c(NCc4cccs4)nc(-c4ccccc4)cn23)cc1` [Example 2-77, N-cyclopropyl-4-{6-phenyl-8-[(2-thienylmethyl)amino]imidazo[1,2-a]pyrazin-3-yl}benzamide] was 2.5 nM; that for `O=C(NC1CC1)c1ccc(-c2cnc3c(NCCCCO)nc(-c4ccccc4)cn23)cc1` [Example 2-78, N-cyclopropyl-4-{8-[(4-hydroxybutyl)amino]-6-phenylimidazo[1,2-a]pyrazin-3-yl}benzamide] was 1.1 nM. With `NCCCCCNc1nc(-c2ccccc2)cn2c(-c3ccc(C(=O)NC4CC4)cc3)cnc12` [Example 2-79, 4-{8-[(5-Aminopentyl)amino]-6-phenylimidazo[1,2-a]pyrazin-3-yl}-N-cyclopropylbenzamide], the concentration for half-maximal inhibition (IC50) is 3.2 nM. As to `O=C(NC1CC1)c1ccc(-c2cnc3c(NCCOCCO)nc(-c4ccccc4)cn23)cc1` [Example 2-80, N-cyclopropyl-4-(8-{[2-(2-hydroxyethoxy)ethyl]amino}-6-phenylimidazo[1,2-a]pyrazin-3-yl)benzamide], the IC50 was determined as 6.2 nM. The same measure for `O=C(NC1CC1)c1ccc(-c2cnc3c(NC[C@@H](O)CO)nc(-c4ccccc4)cn23)cc1` [Example 2-81, N-cyclopropyl-4-(8-{[(2R)-2,3-dihydroxypropyl]amino}-6-phenylimidazo[1,2-a]pyrazin-3-yl)benzamide]: 1.9 nM; for `O=C(NC1CC1)c1ccc(-c2cnc3c(NC[C@H](O)CO)nc(-c4ccccc4)cn23)cc1` [Example 2-82, N-cyclopropyl-4-(8-{[(2S)-2,3-dihydroxypropyl]amino}-6-phenylimidazo[1,2-a]pyrazin-3-yl)benzamide]: 4.4 nM; for `O=C(NC1CC1)c1ccc(-c2cnc3c(NCCSC(F)(F)F)nc(-c4ccccc4)cn23)cc1` [Example 2-83, N-cyclopropyl-4-[6-phenyl-8-({2-[(trifluoromethyl)sulfanyl]ethyl}amino)imidazo[1,2-a]pyrazin-3-yl]benzamide]: 5.4 nM.
